Measured values from ChEMBL document CHEMBL1201862, “PubChem BioAssay data set” (2004).
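All cell lines were grown in 96-well plates and treated with compound for 48 hours. At the GI50, growth is halved.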 Active and inactive are the calls of the source. Rule as the data show it: active = GI50 up to about 1.1 µM and inactive = higher.

Tests used:
Test in all cases: NCI-60 cell line screen, 48 h
SK-MEL-2 = system: SK-MEL-2
A498 = system: A498
HL-60 = system: HL-60
K562 = system: K562
DU-145 = system: DU-145
CAKI-1 = system: CAKI-1
T47D = system: T47D
LOX IMVI = system: LOX IMVI
OVCAR-5 = system: OVCAR-5
MDA-N = system: MDA-N
SR = system: SR
SW-620 = system: SW-620
HCC 2998 = system: HCC 2998
SF-539 = system: SF-539
786-0 = system: 786-0
KM12 = system: KM12
U-251 = system: U-251
MCF7 = system: MCF7

Row | SMILES | GI50 (SK-MEL-2) | GI50 (A498) | GI50 (HL-60) | GI50 (K562) | GI50 (DU-145) | GI50 (CAKI-1) | GI50 (T47D) | GI50 (LOX IMVI) | GI50 (OVCAR-5) | GI50 (MDA-N) | GI50 (SR) | GI50 (SW-620) | GI50 (HCC 2998) | GI50 (SF-539) | GI50 (786-0) | GI50 (KM12) | GI50 (U-251) | GI50 (MCF7)
1 | N#Cc1c(N2CCCC2)nsc1Nc1ccccc1 | > 100 µM (inactive) | > 100 µM (inactive) | > 100 µM (inactive) | > 100 µM (inactive) | > 100 µM (inactive) | > 10 µM (inactive) | > 100 µM (inactive) | > 100 µM (inactive) | > 100 µM (inactive) | > 100 µM (inactive) | > 100 µM (inactive) | > 100 µM (inactive) | > 100 µM (inactive) | > 100 µM (inactive) | > 100 µM (inactive) | > 100 µM (inactive) | – | –
2 | COc1ccc(/C(=N\Nc2ccccn2)c2ccccn2)cc1 | 3.37 µM (inactive) | 38.2 µM (inactive) | < 0.01 µM (active) | < 0.0107 µM (active) | 0.29 µM (active) | < 0.01 µM (active) | – | – | 2.54 µM (inactive) | 0.631 µM (active) | 0.0547 µM (active) | < 0.01 µM (active) | 2.93 µM (inactive) | 0.0627 µM (active) | < 0.0162 µM (active) | 0.16 µM (active) | < 0.0178 µM (active) | < 0.01 µM (active)
3 | Cc1nc(C(N)=S)sc1C(=O)CC(=O)C(=O)Nc1nc2ccccc2[nH]1 | > 100 µM (inactive) | > 100 µM (inactive) | 46.8 µM (inactive) | > 100 µM (inactive) | – | > 100 µM (inactive) | > 100 µM (inactive) | > 100 µM (inactive) | > 100 µM (inactive) | – | > 100 µM (inactive) | > 100 µM (inactive) | > 100 µM (inactive) | > 100 µM (inactive) | > 100 µM (inactive) | > 100 µM (inactive) | > 100 µM (inactive) | > 100 µM (inactive)
4 | CN(C)CCNC(=O)c1nc([N+](=O)[O-])cn1C | > 100 µM (inactive) | > 100 µM (inactive) | > 100 µM (inactive) | > 100 µM (inactive) | > 100 µM (inactive) | > 100 µM (inactive) | > 100 µM (inactive) | > 100 µM (inactive) | > 100 µM (inactive) | – | > 100 µM (inactive) | > 100 µM (inactive) | > 100 µM (inactive) | > 100 µM (inactive) | > 100 µM (inactive) | > 100 µM (inactive) | > 100 µM (inactive) | > 100 µM (inactive)
5 | COC(=O)C1=C(O)C(C(=O)OC)[C@]2(O)[C@H](C(=O)OC)[C@H]1C[C@@H](c1cccc(OC)c1)[C@H]2C(=O)OC (some centres not stated) | 17.7 µM (inactive) | 21.4 µM (inactive) | 0.207 µM (active) | 28.4 µM (inactive) | – | 22.4 µM (inactive) | 30.5 µM (inactive) | 36.5 µM (inactive) | 24.9 µM (inactive) | 15.6 µM (inactive) | 21.9 µM (inactive) | 21.5 µM (inactive) | 20.5 µM (inactive) | 32.3 µM (inactive) | 20.7 µM (inactive) | 27.7 µM (inactive) | 24.2 µM (inactive) | 23.4 µM (inactive)
6 | C(#C[C@@]12CCC[C@@H]1N(Cc1ccccc1)CO2)c1ccc2c(c1)OCO2 | > 100 µM (inactive) | > 100 µM (inactive) | – | > 100 µM (inactive) | > 100 µM (inactive) | > 100 µM (inactive) | > 100 µM (inactive) | – | > 100 µM (inactive) | > 100 µM (inactive) | – | > 100 µM (inactive) | > 100 µM (inactive) | > 100 µM (inactive) | > 100 µM (inactive) | > 100 µM (inactive) | > 100 µM (inactive) | > 100 µM (inactive)
7 | COc1ccc2c3c([nH]c2c1)CCN(Cc1ccccc1)C3 | – | 15.1 µM (inactive) | 17.5 µM (inactive) | 21.4 µM (inactive) | > 100 µM (inactive) | – | 19.4 µM (inactive) | 15.8 µM (inactive) | 21 µM (inactive) | – | 17.4 µM (inactive) | 23.2 µM (inactive) | 19.1 µM (inactive) | 16.1 µM (inactive) | > 10 µM (inactive) | 22 µM (inactive) | 22.5 µM (inactive) | 17.5 µM (inactive)
8 | N#CC1(C#N)C2CCCCC23OC(=N)C1(C#N)C(c1ccccc1)O3 (configuration not stated) | 20.2 µM (inactive) | 17.8 µM (inactive) | – | 7.11 µM (inactive) | 20.5 µM (inactive) | 10.8 µM (inactive) | 17.5 µM (inactive) | 17.3 µM (inactive) | 21.2 µM (inactive) | 14 µM (inactive) | – | 14.8 µM (inactive) | 14.2 µM (inactive) | 17.1 µM (inactive) | 14.6 µM (inactive) | 8.49 µM (inactive) | 17.6 µM (inactive) | 16.6 µM (inactive)
9 | COc1cc([N+](=O)[O-])c(S(=O)(=O)O)cc1-n1nc(C(=O)Nc2ccccc2)n[n+]1-c1cc(S(=O)(=O)[O-])c([N+](=O)[O-])cc1OC | > 100 µM (inactive) | – | > 100 µM (inactive) | 88.7 µM (inactive) | > 100 µM (inactive) | > 100 µM (inactive) | – | 9.84 µM (inactive) | > 100 µM (inactive) | > 100 µM (inactive) | > 100 µM (inactive) | > 100 µM (inactive) | – | – | > 100 µM (inactive) | > 100 µM (inactive) | 97.7 µM (inactive) | > 100 µM (inactive)
10 | NC(CSC(=O)c1ccccc1)C(=O)O (configuration not stated) | > 100 µM (inactive) | > 100 µM (inactive) | > 100 µM (inactive) | – | > 100 µM (inactive) | > 100 µM (inactive) | – | > 100 µM (inactive) | > 100 µM (inactive) | > 100 µM (inactive) | > 100 µM (inactive) | > 100 µM (inactive) | – | > 100 µM (inactive) | > 100 µM (inactive) | > 100 µM (inactive) | > 100 µM (inactive) | > 100 µM (inactive)
11 | CCCCCCCCCc1cc(-c2ccc(C=O)s2)sc1-c1ccc(C=O)s1 | 25.5 µM (inactive) | 1.6 µM (inactive) | 16.8 µM (inactive) | 3.56 µM (inactive) | 26.7 µM (inactive) | – | 17.1 µM (inactive) | 11.5 µM (inactive) | 29.5 µM (inactive) | – | 4.08 µM (inactive) | 30.2 µM (inactive) | 35.6 µM (inactive) | 41.1 µM (inactive) | 28.7 µM (inactive) | 36.6 µM (inactive) | 10 µM (inactive) | 14.3 µM (inactive)
12 | O=[N+]([O-])c1ccc(O)c(/C=N/CC2CCCN3CCCCC23)c1 (configuration not stated) | – | – | – | – | 42.2 µM (inactive) | 57.7 µM (inactive) | – | 38.8 µM (inactive) | 31.7 µM (inactive) | 44.8 µM (inactive) | – | – | 22.5 µM (inactive) | 25.6 µM (inactive) | 38.8 µM (inactive) | 37.7 µM (inactive) | – | 46.8 µM (inactive)
13 | CCN(CC)CC(=O)Nc1c(C(N)=O)nnn1Cc1cc(Cl)c(C(=O)c2ccc(Cl)cc2)c(Cl)c1 | 14.9 µM (inactive) | 37.9 µM (inactive) | 15.5 µM (inactive) | 17.3 µM (inactive) | 30.8 µM (inactive) | 22.5 µM (inactive) | 15.9 µM (inactive) | 16.1 µM (inactive) | 19.5 µM (inactive) | – | 23.8 µM (inactive) | 19.2 µM (inactive) | 17.7 µM (inactive) | 16.5 µM (inactive) | 16.1 µM (inactive) | 18.8 µM (inactive) | 19.5 µM (inactive) | 17.1 µM (inactive)
14 | CC(=O)C1C(=O)C(=O)N(c2ccc([N+](=O)[O-])cc2[N+](=O)[O-])C1=O (configuration not stated) | > 100 µM (inactive) | – | > 100 µM (inactive) | – | > 100 µM (inactive) | > 100 µM (inactive) | – | > 100 µM (inactive) | > 100 µM (inactive) | – | – | > 100 µM (inactive) | > 100 µM (inactive) | > 100 µM (inactive) | > 100 µM (inactive) | > 100 µM (inactive) | > 100 µM (inactive) | > 100 µM (inactive)
15 | O=[N+]([O-])c1cccnc1-n1cnc2ccccc21 | > 100 µM (inactive) | > 100 µM (inactive) | 48 µM (inactive) | > 100 µM (inactive) | > 100 µM (inactive) | > 100 µM (inactive) | > 100 µM (inactive) | > 100 µM (inactive) | > 100 µM (inactive) | – | > 100 µM (inactive) | > 100 µM (inactive) | > 100 µM (inactive) | > 100 µM (inactive) | > 100 µM (inactive) | > 100 µM (inactive) | > 100 µM (inactive) | > 100 µM (inactive)
16 | Cc1ccc(-n2nnc(C(N)=O)c2O)cc1 | – | – | > 100 µM (inactive) | > 100 µM (inactive) | > 100 µM (inactive) | > 100 µM (inactive) | > 100 µM (inactive) | – | > 100 µM (inactive) | > 100 µM (inactive) | – | > 100 µM (inactive) | > 100 µM (inactive) | – | > 100 µM (inactive) | > 100 µM (inactive) | > 100 µM (inactive) | > 100 µM (inactive)
17 | Cc1ccc(S(=O)(=O)N2CC2CCCCC=O)cc1 (configuration not stated) | > 100 µM (inactive) | > 100 µM (inactive) | – | 32.6 µM (inactive) | > 100 µM (inactive) | > 100 µM (inactive) | > 100 µM (inactive) | 20.1 µM (inactive) | > 100 µM (inactive) | > 100 µM (inactive) | 17.1 µM (inactive) | 52.7 µM (inactive) | – | – | 40.6 µM (inactive) | 63.1 µM (inactive) | 27.4 µM (inactive) | –
18 | O=C(CSCC(=O)N/N=C\c1cccc(Br)c1)N/N=C\c1cccc(Br)c1 | 22.9 µM (inactive) | – | 30.3 µM (inactive) | 18.2 µM (inactive) | 21.8 µM (inactive) | 17.9 µM (inactive) | 18.1 µM (inactive) | 10.8 µM (inactive) | 18.6 µM (inactive) | – | 27.2 µM (inactive) | 27.8 µM (inactive) | – | 23.6 µM (inactive) | 19.1 µM (inactive) | 15 µM (inactive) | 15.1 µM (inactive) | 33.1 µM (inactive)
